Experimental data as given in patent EP3064205A1, “Therapeutic use of isomeric forms of 2-(4-chlorophenyl)quinolin-4-yl)(piperidin-2-yl)methanol” (Glionova AB, priority 2015, dated 2016).
Read-outs that look alike come from different tables or passages of the source.

Legend:
Panc-1 cells = assay: APH cell viability assay, 2D culture; assay type: cell-based, human; details: Panc-1, 2D culture, 30 µM
Source text: The following well-characterized human pancreatic ductal adenocarcinoma cell lines (ATCC) were used: HPAF II, BxPC-3, MIA-PaCa2 and Panc-1. These cell lines were generated from patient-derived tumors and are widely used model system to study pancreatic cancer (HPAF II: Kim YW, et al. Pancreas 4: 353-362, 1989; BxPC-3: Tan MH, et al. Cancer Invest. 4: 15-23, 1986; MIA-PaCa2: Yunis AA, et al. Int. J. Cancer 19: 128-135, 1977; Pacn-1: Lieber M, et al. Int. J. Cancer 15: 741-747, 1975).
For 2D culture, cells were seeded on flat bottom 96 well plates (Costar) at a concentration of 2500 cells/well in 100 µl phenol red-free RPMI-F12 medium containing 10% FCS. For 3D culture, cells were seeded according to the description for spheroid preparation in phenol-free medium. On day 4 Vacquinol-1 RS (S1) was added at the indicated final concentrations in an extra volume of 10 µl/well and in 8 replicates for each time point. On day 7, an APH assay (See below) was performed. The viability rate was calculated as a percentage of the untreated cells. All data were expressed as the mean ± SD of at least 8 replicates. To confirm the reliability of the APH assay on 2D culture, cell viability was measured using CellTiter-Glo assay (Promega).
The APH assay, which measures the activity of acidic phosphatase in the cells, was optimized for 3D cultures as follows. Only 70µl of medium was removed in order not to suck up the spheres. Then 60µl of PBS was added per well and 100µl of APH buffer (0.1 M sodium acetate pH 5.2 and 0.1 % triton X-100) containing the substrate (2mg/ml p-nitrophenyl phosphate, final pH 4.8 from Thermo Scientific). After 2 hours incubation for the 2D culture and 5 hours for the 3D culture, 10µl of 1 M NaOH was added to stop the APH activity. Absorbance at 405nm was measured within 10 minutes using a FluoStar OPTIMA plate reader (BMG Labtech). Viability rate was calculated as per cent of CTR untreated cells. All data are expressed as the mean ± SD of at least 8 replicates.

[1] = tested on: patient-derived tumor xenograft (PDX) tumor panel; assay: 3D clonogenic assay, whole panel; assay type: cell-based, human; details: for IC50: Homo sapiens
Procedure: (§1) The anti-tumor efficacy of S1 in the patient-derived tumor xenograft (PDX) tumor panel was assessed, where the efficacy of S1 in PDX tumor panel in the 96-well format, in 10 concentrations in duplicate was performed. Colony formation of tumor cell suspensions in a soft-agar matrix was observed and quantified. The output is IC50 values and dose response-relationships based on number of colonies in control and treatment wells, as identified by an automated image analysis algorithm. Stock solution of S1 was prepared in 100% DMSO at 10 mM concentration (stored at -20°C) and reused for each experiment. Compound final test concentrations: Dilution series ½ i.e.: 50µM, 15, 5, 1.5, 0.5, 0.15, 0.05, 0.015, 0.005 and 0.0015.
(§2) Tumor xenografts (also referred to as patient-derived tumor xenografts) were passaged as subcutaneous xenografts in NMRI nu/nu mice. Tumor xenograft were removed from mice under sterile conditions, mechanically disaggregated and subsequently incubated with an enzyme cocktail consisting of collagenase type IV (41 U/mL), DNase I (125 U/mL), hyaluronidase type III (100 U/mL) and dispase II (1.0 U/mL) in RPMI 1640 medium at 37°C for 60 - 120 minutes. Cells were passed through sieves of 100 µm and 40 µm mesh size and washed with RPMI 1640 medium. The percentage of viable cells was determined in a Neubauer-hemocytometer using trypan blue exclusion. Aliquots of the cells were frozen down, and stored in liquid nitrogen.
The clonogenic assay test was carried out in 96 well plate format. For each test a frozen aliquot of tumor cells prepared from tumor xenografts was thawed and assay plates were prepared as follows: each test well contained 3 layers of equal volume, 2 layers of semi-solid medium (bottom and top layer), and one layer of medium supernatant, with or without test compound. The bottom layer consisted of 0.05 mL/well Iscove's Modified Dulbecco's Medium (Invitrogen), supplemented with 20% (v/v) fetal calf serum (Sigma), 0.01% (w/v) gentamicin (Invitrogen) and 0.75% (w/v) agar (BD Biosciences). Tumor cells were added to 0.05 mL of the same culture medium supplemented with 0.4% (w/v) agar and plated onto the bottom layer. After 24 h, test compounds were added after serial dilution in DMSO and transfer in cell culture medium, and left on the cells for the duration of the experiment (continuous exposure, 0.05 mL drug overlay). Every dish included six untreated control wells and drug-treated groups in duplicate at 10 concentrations. Cultures were incubated at 37 °C and 7.5% CO2 in a humidified atmosphere for 8 to 13 days and monitored closely for colony growth using an inverted microscope. Within this period, ex vivo tumor growth lead to the formation of colonies with a diameter of >50 µm. At the time of maximum colony formation, counts were performed with an automatic image analysis system. 24 h prior to evaluation, vital colonies were stained with a sterile aqueous solution of 2-(4-iodophenyl)-3-(4-nitrophenyl)-5-phenyltetrazolium chloride (1 mg/mL, 100 µL/well). Sigmoidal concentration-response curves were fitted to the data points obtained for each tumor model using 4 parameter non-linear curve fit (Oncotest Warehouse Software). IC50 values are reported as relative IC50 values, being the concentration of test compound that give a response (inhibition of colony formation/viability) half way between the top and bottom plateau of the sigmoidal concentration-response curve (inflection point of the curve), or as absolute IC50 values, being the concentration of test compound at the intersection of the concentration-response curves with T/C = 50%. For calculation of mean IC50 values the geometric mean was used. Results are presented as mean graph plots or heat maps (individual IC50 values relative to the geometric mean IC50 value) over all cell lines as tested.

MAXF 574 = assay: 3D clonogenic assay (PDX); assay type: cell-based; details: Homo sapiens, MAXF 574, Breast
Procedure: as §1, §2
(§3) The clonogenic assay test was carried out in 96 well plate format. For each test a frozen aliquot of tumor cells prepared from tumor xenografts was thawed and assay plates were prepared as follows: each test well contained 3 layers of equal volume, 2 layers of semi-solid medium (bottom and top layer), and one layer of medium supernatant, with or without test compound. The bottom layer consisted of 0.05 mL/well Iscove's Modified Dulbecco's Medium (Invitrogen), supplemented with 20% (v/v) fetal calf serum (Sigma), 0.01% (w/v) gentamicin (Invitrogen) and 0.75% (w/v) agar (BD Biosciences). Tumor cells were added to 0.05 mL of the same culture medium supplemented with 0.4% (w/v) agar and plated onto the bottom layer. After 24 h, test compounds were added after serial dilution in DMSO and transfer in cell culture medium, and left on the cells for the duration of the experiment (continuous exposure, 0.05 mL drug overlay). Every dish included six untreated control wells and drug-treated groups in duplicate at 10 concentrations. Cultures were incubated at 37 °C and 7.5% CO2 in a humidified atmosphere for 8 to 13 days and monitored closely for colony growth using an inverted microscope. Within this period, ex vivo tumor growth lead to the formation of colonies with a diameter of >50 µm. […]

RXF 1183 = assay: 3D clonogenic assay (PDX); assay type: cell-based; details: Homo sapiens, RXF 1183, Renal
Procedure: as §1, §2, §3

IC50 ([1]; colony formation, mean over tumors, read-out: absolute mean IC50 value): 8.89 µM | IC50 ([1]; colony formation, mean over tumors, read-out: relative mean IC50 value): 8.1 µM | IC50 ([1]; geometric mean over Table 2, read-out: Mean IC50 (qeometr.) abs. IC50): 9.47 µM | IC50 ([1]; geometric mean over Table 2, read-out: Mean IC50 (qeometr.) rel. IC50): 8.7 µM | IC50 ([1]; most tumors tested, read-out: IC50): 2 to 15 µM | IC50 ([1]; three tumors: BXF1352, CXF647, LXFA289, read-out: IC50): > 15 µM | IC50 lower than the mean of all tumors ([1]; sensitive tumors BXF 1258 and LXFA 526, on average): 3 fold | IC50 (MAXF 574; read-out: abs. IC50): 50 µM | IC50 (MAXF 574; read-out: rel. IC50): 50 µM | IC50 (RXF 1183; read-out: abs. IC50): 50 µM | IC50 (RXF 1183; read-out: rel. IC50): 50 µM
SMILES: O[C@H](c1cc(-c2ccc(Cl)cc2)nc2ccccc12)[C@@H]1CCCCN1 [S1, (R)-(2-(4-chlorophenyl)quinolin-4-yl)((S)-piperidin-2-yl)methanol]
decrease in cell viability (Panc-1 cells; 24h): 43% | decrease in cell viability (Panc-1 cells; 48h): 63% | decrease in cell viability (Panc-1 cells; 72h): 70% | bottom plateaus of the concentration-effect curves ([1]; range over tested xenografts): 0% to 47%
